In data set [1] the target is T1, mouse P2RY14 (Mus musculus, UniProt Q9ESG6).
T1 construct: expressed in transfected cells
T1 sequence (Q9ESG6 1-338): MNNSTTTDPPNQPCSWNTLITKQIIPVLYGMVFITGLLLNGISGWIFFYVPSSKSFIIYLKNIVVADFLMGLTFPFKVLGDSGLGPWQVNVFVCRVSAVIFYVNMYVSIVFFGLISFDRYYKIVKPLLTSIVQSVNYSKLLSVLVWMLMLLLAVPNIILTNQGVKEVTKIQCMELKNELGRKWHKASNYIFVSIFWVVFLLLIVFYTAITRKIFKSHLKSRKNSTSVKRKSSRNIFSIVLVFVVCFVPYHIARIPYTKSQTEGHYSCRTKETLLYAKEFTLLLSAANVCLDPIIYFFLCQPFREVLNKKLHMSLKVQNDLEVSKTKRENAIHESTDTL
The data set is described as follows: CellKey System live cell functional assay, mouse P2RY14. It counts as cell-based. Conditions: HEK cells expressing mouse P2RY14 and Gqi5. How it is done: (§1) The Cellkey System™ (MDS Sciex), a novel, live cell, label-free, real-time technology, was used to examine P2RY14 activation following agonist stimulation. The CellKey System™ is based on cellular dielectric spectroscopy (CDS) and monitors changes in impedance of the applied electrical current through the cell monolayer upon receptor activation.
(§2) On the following day, growth medium was removed from the cell monolayer and replaced with 135 μl of HBSS pH 7.4 containing 20 mM Hepes for a 30 minutes pre-incubation period at room temperature. Baseline measurements were made for 5 minutes at 28° C. prior to ligand addition. For agonist assays, 15 μl of 10× agonist diluted in HBSS pH 7.4 containing 20 mM HEPES was added to the cell monolayer simultaneously using the 96 multichannel head from the CellKey™ System. Cellular response was monitored for 10 minutes to assess cellular response after ligand addition.

In data set [2] the test system is HEK cells not expressing P2RY14. The data set is described as follows: FLIPR Ca2+ release in HEK cells not expressing P2RY14 (specificity). In kind it is cell-based.
Data set [3] relates to simian (chimpanzee) P2RY14. The data set is described as follows: CellKey System live cell functional assay, simian P2RY14. It counts as cell-based. Conditions: HEK cells expressing simian P2RY14 and Gqi5. As for the experimental part: as §1, §2
For data set [4], the target named is T1, mouse P2RY14. The data set is described as follows: FLIPR whole cell Ca2+ agonist assay, HEK cells expressing mouse P2RY14 and Gqi5. It counts as cell-based. An excerpt:
(§3) Stable HEK clonal cell lines expressing P2RY14 and the chimeric G protein Gqi5 were constructed. The chimeric Gqi5 forces the coupling of P2RY14 through the Gq (calcium) pathway and allows for monitoring of calcium signaling using a calcium binding fluorescent dye and a FLIPR (fluorometric imaging plate reader, MDS Sciex). Vector pCEP4 comprising the chimeric Gqi5 was obtained from Molecular Devices, Sunnyvale, Calif. (Cat. No. RD-PGQI5).
The nucleic acid encoding the mouse P2RY14 was under the control of the CMV promoter.
(§4) Cells were grown in DMEM medium containing 25 mM HEPES, pH 7.4 and 10% FBS, 50 units/ml penicillin/50 μg/ml streptomycin, 2 mM glutamine and 1 mM sodium pyruvate at 37° C. in humidified air containing 5% CO2. Two days post-transfection, cells were grown under selection in the DMEM medium as indicated above and supplemented with 200 μg/ml Hygromycin B and 250 μg/ml geneticin.
(§5) Cells were incubated overnight at 37° C. and 5% CO2 to form a monolayer. On the following day, 30 μl of fluorescent no-wash dye was added to the cell monolayer and the plate was incubated for 60 minutes at 37° C., 5% CO2.
(§6) For agonist assays, 6.12 μl of 10× agonist solution was added to the cell/dye incubation and Ca^2+ signaling was monitored by FLIPR. For antagonist assays, 250 nl of compound in 100% DMSO was added to cell/dye mixture; following a 20 minute incubation at room temperature, 6.12 μl of 10× agonist solution at EC80 in HBSS containing 20 mM Hepes was added to cells and Ca^2+ signaling was monitored by FLIPR. Quantitation of the % stimulation or inhibition of Ca^2+ signaling by agonist or antagonist, respectively, was calculated using the Max-Min fluorescent signal detected.

Data set [5] relates to simian P2RY14. The data set is described as follows: Membrane filtration binding assay, simian P2RY14. Set-up: species or system chimpanzee. How it is done: (§7) Membrane preparations were made by N2 cavitation using a Parr unit. […] Cell were Dounce homogenized (size B, 10 strokes) and then added to the cavitation unit. Pressure was adjusted to 800 psi and cells were left under pressure for 30 minutes. Broken cells were released drop by drop and spun at 1000 g for 10 minutes. Supernatent was spun at 160,000 g (rotor type 60 Ti, 40000 rpm for 30 min). Pellet was resuspended in 10 mM HEPES/KOH pH 7.4, 1 mM EDTA in ⅕ the original volume, dounce homogenized (size A, 10 strokes), aliquoted, and frozen at −80° C.
Binding assays were performed in 10 mM Hepes pH 7.4 (KOH), 5 mM MnCl2, 5 mM MgCl2 buffer. Membranes (10 μg/well for human P2RY14 and 30 μg/well for simian P2RY14) were incubated with 10 nM [5.6-^3H] Uridine 5′-triphosphate (UTP), ammonium salt from Amersham Biosciences (# TRK412) in presence of compounds diluted in DMSO (2% final in assay), in a total volume of 100 μl. 50 minutes (human P2RY14) or 60 minutes (simian) P2RY14) incubations were performed at room temperature with shaking. […] To examine the stability of [^3H]-UTP in the membrane filtration binding assay, 100 ul aliquots of the reaction mixture were extracted at 2, 10, 20, 40, 60 and 90 minutes with 100 uL of cold 80 mM EDTA solution (pH 8) and 200 uL of cold Acetonitrile. After mixing, proteins were precipitated by centrifugation at 13000 rpm for 10 minutes at 4° C. […] After 0.5 min at 10:90 50 mM KH2PO4/750 mM KH2PO4, a gradient was applied in order to increase to 100% 750 mM KH2PO4 at 5 min, after which this composition was maintained for an additional 3 min. Samples were kept at 4° C. prior to HPLC analysis

The test system of data set [6] is simian (chimpanzee) P2RY14. The data set is described as follows: FLIPR whole cell Ca2+ agonist assay, HEK cells expressing simian (chimpanzee) P2RY14 and Gqi5. It counts as cell-based.
Source text: as §3
The simian (chimpanzee) P2RY14 nucleic acid fragment was synthesized based upon the Ensembl Gene ID ENSPTRG00000030093 by Bio S & T, Montreal, Quebec, Canada, to be flanked with KpnI and NotI restriction enzyme sites. […] The DNA fragment was digested with KpnI and NotI and then cloned into a pcDEF3 vector previously digested with KpnI and NotI to place the DNA fragment in the proper orientation downstream of the human EF-1a promoter. The nucleic acid encoding the simian P2RY14 was under the control of the human EF-1a promoter.
as §4, §5, §6

In data set [7] the target is T2, rat P2YR14 receptor (Rattus norvegicus, UniProt O35881).
T2 sequence (O35881 1-305): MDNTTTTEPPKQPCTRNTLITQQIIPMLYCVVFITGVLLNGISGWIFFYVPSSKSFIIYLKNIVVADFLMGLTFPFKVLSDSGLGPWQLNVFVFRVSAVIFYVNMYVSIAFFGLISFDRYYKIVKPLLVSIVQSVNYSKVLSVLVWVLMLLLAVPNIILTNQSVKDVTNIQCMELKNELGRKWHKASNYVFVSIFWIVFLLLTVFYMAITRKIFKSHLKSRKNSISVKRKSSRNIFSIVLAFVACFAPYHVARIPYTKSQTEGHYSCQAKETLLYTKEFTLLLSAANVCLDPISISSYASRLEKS
As to conditions: Fricks et al. 2007; cited from earlier work.

Data set [8] can be described thus: HPLC analysis of [3H]-UTP stability in the P2RY14 membrane filtration binding assay. Conditions: 60 minute incubation. How it is done: Binding assays were performed in 10 mM Hepes pH 7.4 (KOH), 5 mM MnCl2, 5 mM MgCl2 buffer. Membranes (10 μg/well for human P2RY14 and 30 μg/well for simian P2RY14) were incubated with 10 nM [5.6-^3H] Uridine 5′-triphosphate (UTP), ammonium salt from Amersham Biosciences (# TRK412) in presence of compounds diluted in DMSO (2% final in assay), in a total volume of 100 μl. 50 minutes (human P2RY14) or 60 minutes (simian) P2RY14) incubations were performed at room temperature with shaking. […] Incubation mixtures were filtered on GF/C Packard filter membranes (#6065174) and washed with cold 10 mM Hepes/KOH buffer at pH 7.4 (2×3.7 ml) using a Tomtek Mach III harvester. GF/C filters were subsequently dried at 55° C. in a vacuum oven for 1 hour before addition of 25 μl/well Ultima Gold F scintillation fluid from Packard (#6013179) and counted in a Wallac Microbeta counter normalized for ^3H (2 min/well). Counts (ccpms) generated by non specific binding were subtracted from total counts, to give specific binding which was expressed as % of total binding and K is were calculated by data analyzer using the inflection point of the dose dependant sigmoidal curve generated for each compound. Kds for [^3H]-UTP/[^3H]-UDP in the human and simian assays were determined by Scatchard analysis and are as follow: 10.03 nM for human P2RY14 and 10.25 nM for simian P2RY14. […]

The target in data set [9] is T3, P2RY14 (Homo sapiens, UniProt Q15391).
T3 sequence (Q15391 1-338): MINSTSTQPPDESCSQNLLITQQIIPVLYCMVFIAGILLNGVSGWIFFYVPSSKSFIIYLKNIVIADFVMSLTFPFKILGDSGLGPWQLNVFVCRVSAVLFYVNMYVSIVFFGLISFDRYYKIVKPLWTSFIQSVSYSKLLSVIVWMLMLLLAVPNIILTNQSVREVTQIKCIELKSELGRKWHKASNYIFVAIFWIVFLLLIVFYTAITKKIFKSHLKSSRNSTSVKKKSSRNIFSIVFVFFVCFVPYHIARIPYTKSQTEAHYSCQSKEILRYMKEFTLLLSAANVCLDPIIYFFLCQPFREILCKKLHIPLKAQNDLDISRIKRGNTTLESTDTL
Description: Membrane filtration binding assay, human P2RY14. Set-up: expressed in transfected cells. Conditions: human P2RY14 (data not shown). As for the experimental part: as §7
Binding assays were performed in 10 mM Hepes pH 7.4 (KOH), 5 mM MnCl2, 5 mM MgCl2 buffer. Membranes (10 μg/well for human P2RY14 and 30 μg/well for simian P2RY14) were incubated with 10 nM [5.6-^3H] Uridine 5′-triphosphate (UTP), ammonium salt from Amersham Biosciences (# TRK412) in presence of compounds diluted in DMSO (2% final in assay), in a total volume of 100 μl. 50 minutes (human P2RY14) or 60 minutes (simian) P2RY14) incubations were performed at room temperature with shaking. […] To examine the stability of [^3H]-UTP in the membrane filtration binding assay, 100 ul aliquots of the reaction mixture were extracted at 2, 10, 20, 40, 60 and 90 minutes with 100 uL of cold 80 mM EDTA solution (pH 8) and 200 uL of cold Acetonitrile. After mixing, proteins were precipitated by centrifugation at 13000 rpm for 10 minutes at 4° C. […]

Turning to `O=c1ccn([C@@H]2O[C@H](COP(=O)(O)OP(=O)(O)O)[C@@H](O)[C@H]2O)c(=O)[nH]1` [UDP], the “P2RY14 signaling (impedance, CellKey)” value in data set [1] and in [3] was “mediated signaling” in each case. Moreover, the “Ca2+ release in cells not expressing P2RY14” value in data set [2] is “do not stimulate Ca^2+ release”. For the same compound, the “activation of P2RY14 (Ca2+ signaling)” value in data set [4] and in data set [6] was “activated” in each case. Also, in [5] (simian P2RY14 membranes), the “competition for [3H]-UTP/[3H]-UDP binding” value was “able to successfully compete”. Besides, the “mode of action at receptor” value in [7] is reported as “full agonist”.
Regarding `N.N.N.N.[3H]c1c([3H])n([C@@H]2O[C@H](COP(=O)(O)OP(=O)(O)OP(=O)(O)O)[C@@H](O)[C@H]2O)c(=O)[nH]c1=O` [[^3H]-UTP, [5.6-^3H] Uridine 5′-triphosphate (UTP), ammonium salt], in data set [8], the “stability of radioligand in membrane filtration binding assay” value is “converted predominantly to [^3H]-UDP” and the “time of conversion to [3H]-UDP” value is no more than 10 min. Besides, the “specific binding window as radioligand” value in data set [9] was “a specific binding window”. Further, the “specific binding window as radioligand” value in [5] (HEK cells expressing simian P2RY14, membrane filtration) is recorded as “a specific binding window”.

Source of the values: patent US20090148850A1, “Methods for identifying modulators of P2RY14” (priority 2007, published 2009).
